Source: patent publication US20240376073A1 (Hoffmann-La Roche Inc., priority 2021, published 2024)
Counter-ions that a name gives are not always drawn.

Tested on: Acinetobacter baumannii ATCC17961
Assay: Antimicrobial susceptibility testing: 90% growth inhibitory concentration (IC90) determination
Format: cell-based
Settings: Acinetobacter baumannii ATCC17961; Iso-Sensitest broth; growth by OD 600 nm over 16 h; 35±2° C.; read-out: ATCC 17961 IC90
Description: The in vitro antimicrobial activity of the compounds was determined according to the following procedure:
The assay used a 10-points Iso-Sensitest broth medium to measure quantitatively the in vitro activity of the compounds against Acinetobacter baumannii ATCC17961.
Stock compounds in DMSO were serially twofold diluted (e.g. range from 50 to 0.097 μM final concentration) in 384 wells microtiter plates and inoculated with 49 μl the bacterial suspension in Iso-Sensitest medium to have a final cell concentration of ˜5×10^(5) CFU/ml in a final volume/well of 50 ul/well. Microtiter plates were incubated at 35±2° C.
Bacterial cell growth was determined with the measurement of optical density at λ=600 nm each 20 minutes over a time course of 16 h. Growth inhibition was calculated during the logarithmic growth of the bacterial cells with determination of the concentration inhibiting 50% (IC50) and 90% (IC90) of the growth.
Table 1 provides the […] growth inhibitory concentrations (IC90) in micromoles per liter of the compounds of present invention obtained against the strain Acinetobacter baumannii ATCC17961.

Row | Compound | IC90 [nM]
1 | Cn1c(-c2ccc(OC(F)F)c(F)c2F)cnc1C(=O)Nc1ccc(C(=O)N2CCN(C(=O)[C@H]3[C@@H]4C[N+](C)(CC(N)=O)C[C@@H]43)CC2)c(Cl)c1 (mixture of isomers) [Example C4, N-[4-[4-[(1R,5S)-3-(2-amino-2-oxo-ethyl)-3-methyl-3-azoniabi-cyclo[3.1.0]-hexane-6-carbonyl]-piperazine-1-carbonyl]-3-chloro-phenyl]-5-[4-(difluoro-methoxy)-2,3-difluoro-phen-yl]-1-methyl-imidazole-2-carboxamide; formate] | 31
2 | Cn1c(-c2ccc(OCF)c(F)c2F)cnc1C(=O)Nc1ccc(C(=O)N2CCN(C(=O)[C@H]3[C@@H]4C[N+](C)(CC(=O)O)C[C@@H]43)CC2)c(Cl)c1 (mixture of isomers) [Example C30, 2-[(1R,5S)-6-[4-[2-chloro-4-[[5-[2,3-difluoro-4-(fluoromethoxy)phenyl]-1-meth-yl-imidazole-2-carbonyl]amino]-benzoyl]piper-azine-1-carbon-yl]-3-methyl-3-azoniabicyclo-[3.1.0]hexan-3-yl]acetic acid; 2,2,2-trifluoro-acetate] | 540
3 | COc1ccc(-c2cnc(C(=O)Nc3ccc(C(=O)N4CCC(CC[N+](C)(C)C)CC4)c(Cl)c3)n2C)c(F)c1F [Example A1, 2-[1-[2-Chloro-4-[[5-(2,3-difluoro-4-methoxy-phenyl)-1-methyl-imidazole-2-carbonyl]amino]benzoyl]-4-piperidyl]ethyl-trimethyl-ammonium;formate] | 79
4 | COc1ccc(-c2cnc(C(=O)Nc3ccc(C(=O)NCCCCC[N+](C)(C)C)c(Cl)c3)n2C)c(F)c1F [Example A2, 5-[[2-Chloro-4-[[5-(2,3-difluoro-4-methoxy-phenyl)-1-methyl-imidazole-2-carbonyl]amino]benzoyl]amino]pentyl-trimethyl-ammonium;formate] | 340
5 | COc1ccc(-c2cnc(C(=O)Nc3ccc(C(=O)NCCCCC[N+](C)(C)CC(N)=O)c(Cl)c3)n2C)c(F)c1F [Example A3, (2-amino-2-oxo-ethyl)-[5-[[2-chloro-4-[[5-(2,3-difluoro-4-methoxy-phenyl)-1-methyl-imidazole-2-carbonyl]amino]benzoyl]amino]pentyl]-dimethyl-ammonium; formate] | 160
6 | COc1ccc(-c2cnc(C(=O)Nc3ccc(C(=O)N4CCN(CC[N+](C)(C)CC(N)=O)CC4)c(Cl)c3)n2C)c(F)c1F [Example A4, (2-amino-2-oxo-ethyl)-[2-[4-[2-chloro-4-[[5-(2,3-difluoro-4-methoxy-phenyl)-1-methyl-imidazole-2-carbonyl]amino]benzoyl]piperazin-1-yl]ethyl]-dimethyl-ammonium; formate] | 210
7 | CCc1cc(NC(=O)c2ncc(-c3ccc(OC)c(F)c3F)n2C)ccc1C(=O)NCCOCC[N+](C)(C)C [Example A5, 2-(2-(4-(5-(2,3-difluoro-4-methoxyphenyl)-1-methyl-1H-imidazole-2-carboxamido)-2-ethylbenzamido)ethoxy)-N,N,N-trimethylethan-1-aminium iodide] | 460
8 | CCc1cc(NC(=O)c2ncc(-c3ccc(OC)c(F)c3F)n2C)ccc1C(=O)N1CCN(CCC[N+](C)(C)C)CC1 [Example A6, 3-(4-(4-(5-(2,3-difluoro-4-methoxyphenyl)-1-methyl-1H-imidazole-2-carboxamido)-2-ethylbenzoyl)piperazin-1-yl)-N,N,N-trimethylpropan-1-aminium iodide] | 1500
9 | Cc1cc(NC(=O)c2ncc(-c3ccc(OCC#N)c(F)c3F)n2C)ccc1C(=O)N1CCN(C(=O)C[N+](C)(C)C)CC1 [Example A8, [2-[4-[4-[[5-[4-(cyanomethoxy)-2,3-difluoro-phenyl]-1-methyl-imidazole-2-carbonyl]amino]-2-methyl-benzoyl]piperazin-1-yl]-2-oxo-ethyl]-trimethyl-ammonium; iodide] | 310
10 | COc1ccc(-c2cnc(C(=O)Nc3ccc(C(=O)N4CCN(CC[N+](C)(C)C)CC4)c(Cl)c3)n2C)c(F)c1F [Example A9, 2-[4-[2-chloro-4-[[5-(2,3-difluoro-4-methoxy-phenyl)-1-methyl-imidazole-2-carbonyl]amino]benzoyl]piperazin-1-yl]ethyl-trimethyl-ammonium; iodide] | 130
11 | COc1ccc(-c2cnc(C(=O)Nc3ccc(C(=O)N[C@H]4C[C@@H](NC(=O)C[N+](C)(C)C)C4)c(Cl)c3)n2C)c(F)c1F [Example A10, [2-[[3-[[2-Chloro-4-[[5-(2,3-difluoro-4-methoxy-phenyl)-1-methyl-imidazole-2-carbonyl]amino]benzoyl]amino]cyclobutyl]amino]-2-oxo-ethyl]-trimethyl-ammonium formate] | 84
12 | COc1ccc(-c2cnc(C(=O)Nc3ccc(C(=O)N[C@H]4C[C@@H](NCC[N+](C)(C)C)C4)c(Cl)c3)n2C)c(F)c1F [Example A11, 2-[[3-[[2-chloro-4-[[5-(2,3-difluoro-4-methoxy-phenyl)-1-methyl-imidazole-2-carbonyl]amino]benzoyl]amino]cyclobutyl]amino]ethyl-trimethyl-ammonium; formic acid; formate] | 570
13 | Cn1c(-c2ccc(OCC#N)c(F)c2F)cnc1C(=O)Nc1ccc(C(=O)NCCCNC(=O)C[N+](C)(C)C)c(Cl)c1 [Example A12, [2-[3-[[2-chloro-4-[[5-[4-(cyanomethoxy)-2,3-difluoro-phenyl]-1-methyl-imidazole-2-carbonyl]amino]benzoyl]amino]propylamino]-2-oxo-ethyl]-trimethyl-ammonium formate] | 350
14 | Cn1c(-c2ccc(OCC#N)c(F)c2F)cnc1C(=O)Nc1ccc(C(=O)NCCOCC[N+](C)(C)CC(N)=O)c(Cl)c1 [Example A13, (2-amino-2-oxo-ethyl)-[2-[2-[[2-chloro-4-[[5-[4-(cyanomethoxy)-2,3-difluoro-phenyl]-1-methyl-imidazole-2-carbonyl]amino]benzoyl]amino]ethoxy]ethyl]-dimethyl-ammonium formate] | 640
15 | Cn1c(-c2ccc(OCC#N)c(F)c2F)cnc1C(=O)Nc1ccc(C(=O)NCCNC(=O)C[N+](C)(C)C)c(Cl)c1 [Example A14, [2-[2-[2-chloro-4-[[5-[4-(cyanomethoxy)-2,3-difluoro-phenyl]-1-methyl-imidazole-2-carbonyl]amino]benzoyl]amino]ethylamino]-2-oxo-ethyl]-trimethyl-ammonium formate] | 600

Same assay, conditions: Acinetobacter baumannii, ATCC17961, 16 h, read-out: ATCC 17961 IC90, Acinetobacter baumannii ATCC17961; Iso-Sensitest broth; growth by OD 600 nm over 16 h; 35±2° C.

Row | Compound | IC90 [nM]
16 | Cn1c(-c2ccc(OCC#N)c(F)c2F)cnc1C(=O)Nc1ccc(C(=O)N2CCN(C(=O)C[N+](C)(C)C)CC2)c(Cl)c1 [Example A7, [2-[4-[2-chloro-4-[[5-[4-(cyanomethoxy)-2,3-difluoro-phenyl]-1-methyl-imidazole-2-carbonyl]amino]benzoyl]piperazin-1-yl]-2-oxo-ethyl]-trimethyl-ammonium; formate; iodide] | 93

Same assay, conditions: read-out: ATCC 17961 IC90; Acinetobacter baumannii ATCC17961; Iso-Sensitest broth; growth by OD 600 nm over 16 h; 35±2° C.; formate

Row | Compound | IC90 [nM]
17 | COc1ccc(-c2cnc(C(=O)Nc3ccc(C(=O)N4CCN(C(=O)C5C[C@H](O)C[N+]5(C)C)CC4)c(Cl)c3)n2C)c(F)c1F (stereo in doubt) [Example B37, N-[3-chloro-4-[4-[(2R,4S)-4-hydroxy-1,1-dimethyl-pyrrolidin-1-ium-2-carbonyl]piperazine-1-carbonyl]phenyl]-5-(2,3-difluoro-4-methoxy-phenyl)-1-methyl-imidazole-2-carboxamide; formate] | 190
